Results as given in patent US4966962A, “Reverse analogue of actinomycin D” (Trustees of Boston University, priority 1988, dated 1990).
≈ marks a conversion by molar mass, not a printed value. Like-named read-outs stand apart in the source and are kept apart here. *1 amine or outer side, *2 acyl side, *3 side chain or, on linkers, in order; H or OH if unused. Where a SMILES comes first, the peptide text is derived from it. Bridges are numbered along the chain shown (N, C = ends). Roman numbers before positions name the chains, in order. [ ]: non-standard residue; d: D form. Actinocin(9to1) = Cc1c2oc3c(C)ccc(C(=O)[*:1])c3nc-2c(C(=O)[*:2])c(N)c1=O; NMeV = CN[C@H](C(=O)O)C(C)C; Sar = CNCC(=O)O

Columns and labels:
[1] = test system: P388/S (adriamycin sensitive) leukemia; assay: Antitumor activity in vivo, P388/S leukemia; design: species or system mice; details: for tumor free survivors/total on day 60: P388/S, at optimal dose, ip days 1, 5, 9; for effectiveness relative to AMD with respect to %ILS and long-time survivors: P388 lymphocytic leukemia in mice
Procedure: The analogues were tested for their antitumor activities in P388 lymphocytic leukemia in male BDF1 mice.
^a Male CDF1 mic inoculated ip: 10^6 cells inoculum, day 0.
Drugs administered in 10% dimethyl sulfoxidesaline on days 1, 5, and 9. %
ILS = percent increase in life span. Fractions in parentheses = tumor fre
survivors/total on day 60^b. P388/S (adriamycin sensitive) and
P388/ADR (adriamycin resistant) tumors were evaluated in the same
experiment with agent listed.

[2] = Metabolism in tumor cell homogenate (T); assay type: in vitro ADME, murine; details: P388 homogenate (T), 37° C., 16 h
Procedure: In this respect, actinomycin is only about 30% as efficient as its synthetic analogues, RAD III (3c) and SAD (2) (Table II). Metabolic Studies, Metabolism in the Presence of Tumor Cell Homogenates and Rat Liver Microsomes. The cell homogenates (P388 cells were sonicated and were incubated at 37° C. with analogues for 16 h. Rat microsomes were harvested from phenobarbital-induced rats by standard procedure. Incubations were carried out for 6 h in the presence of a NADPH-generating system, i.e., glucose-6-phosphate dehydrogenase and glucose 6-phosphate. The metabolites and their water-soluble conjugates were isolated and identified with the use of tritiated analogues.
It was observed that the RAD analogues are metabolized to SAD (2) with the loss of oxazole ring. […] In tumor cells, a larger fraction of SAD (2) (30-50%) remains unmetabolized. SAD is found to form glucuronide and sulfate conjugates only in tumor cells. […] Isolation of SAD from RAD analogues is a very important step, because SAD is found to be a potent and effective antitumor agent in several murine tumor systems (Tables V-XII).

colon 38 adenocarcinoma = assay: Activity against advanced colon carcinoma C38 tumor; assay type: in vivo, CDF1 mice; details: for % inhibn of tumor: tumors measured day 21; for activity relative to AMD at equivalent doses: every 4 days, three times, from day 1 after implant
Procedure: In view of favorable activity agianst colon 26 carcinoma, further experiments using the active analogues were carried out on the advanced colon adenocarcinomas of mouse colon 38. […] The superiority of RAD III and SAD over AMD in inhibiting colon 38 carcinoma is evident from the data of both tumor weight inhibition and increases in survival time of the treated over nontreated mice and the larger number of long-term survivors produced by these analogues.
^a CDF1 mice were injected sc with colon 38 adenocarcinoma
fragments (70 mg) and treated with drugs with iv injections on day 1, 5,
and 9 following tumor imoplantation on day 0. ^b [100 (tumor weight o
treated mice/tumor weight of untreated mice)] × 100; data pooled
from two experiments, tumors measured on day 21 after implantation ^c
(Median survival time of treated mice/median survival of untreated mice)
× 100; in parenthesis, number of over 100 day survivors/number of […]

[3] = test system: CX-1 human colon adenocarcinoma; assay: Chemotherapy of human colon CX-1 tumor heterotransplanted in nude mice; assay type: in vivo, human tumor in athymic mice
colon tumor 26 = assay: In vivo activity against colon tumor 26; design: species or system CDF1 mice; details: three doses over 9-day period
mouse melanoma (B16) = assay: In vitro inhibition of tumor cell growth; assay type: cell-based; details: B16 cell line
Description: The comparative cell growth inhibitory activity of RAD's and SAD are reported (data in Table IV, supplementary material). The cell lines used are human lymphoblastic leukemia (CCRF-CEM), murine lymphocytic leukemia (P388) and lymphoid leukemia (L1210), and mouse melanoma (B16). […] In general, the cytotoxic potencies of the analogues are in the order: […]

Solubility in water = assay type: physicochemical; details: for solubility in water: at 20° C.
Procedure: Synthesis of "Reverse" III AMD Analogue (RAD III, 3c). The synthesis of RAD III (3c) is shown schematically in Scheme I. Compound 4 was reacted with the benzyl ester of oxalacetic acid at 80° C. according to the procedure reported. The resulting product 5 with the CH2 COOCH2 C6 H5 substituent at the C-2 of the oxazole ring was debenzylated to 6, and compound 6 was coupled with excess 1,4-diaminobutane by DCC in pyridine. […] Like AMD and its other "reverse" analogues, RAD III (3c) is 16-fold more soluble in water at 4° C. than at 20° C.

calf thymus DNA [4] = details: value given with references 2,7; cited from earlier work
low molecular weight DNA = assay: Viscometry experiment (intercalation into DNA); assay type: binding; details: DNA 0.5×10^5 to 1.0×10^5 daltons
calf thymus DNA [5] = assay: Equilibrium binding constants from Scatchard plots of binding isotherms; details: 0.01M phosphate buffer, pH 7.0 at 20° C.
Procedure: The equilibrium binding constants of RAD III (3c), determined from the Scatchard plots of binding isotherms with use of calf thymus DNA, are Kapp, 2.9×10^6 M^-1, and Bapp, 0.040 in 0.01M phosphate buffer, pH 7.0 at 20° C.

[6] = dose 0.30 mg/kg iv days 1, 5, 9
[7] = dose 0.60 mg/kg iv days 1, 5, 9
[8] = dose 1.20 mg/kg iv days 1, 5, 9
[9] = dose 0.15 mg/kg iv days 1, 5, 9
[10] = dose 0.075 mg/kg iv days 1, 5, 9
[11] = dose 0.45 mg/kg iv days 1, 5, 9

| Structure (SMILES) | tumor free survivors/total on day 60 [1] | effectiveness relative to AMD with respect to %ILS and long-time survivors [1] | percent isolated: tissue bound [2] [%] | percent isolated: unidentified metabolite [2] [%] | percent metabolite isolated: SAD-glucuronide and/or sulfate [2] [%] | percent metabolite isolated: protein conjugates [2] [%] | percent unconverted drug [2] | % T/C (median survival time) (colon 38 adenocarcinoma; [6]) [%] | over 100 day survivors/number of mice (colon 38 adenocarcinoma; [6]) | % inhibn of tumor (colon 38 adenocarcinoma; [6]) [%] | % T/C (median survival time) (colon 38 adenocarcinoma; [7]) [%] | over 100 day survivors/number of mice (colon 38 adenocarcinoma; [7]) | % inhibn of tumor (colon 38 adenocarcinoma; [7]) [%] | % T/C (median survival time) (colon 38 adenocarcinoma; [8]) [%] | over 100 day survivors/number of mice (colon 38 adenocarcinoma; [8]) | % inhibn of tumor (colon 38 adenocarcinoma; [8]) [%] | activity relative to AMD at equivalent doses (colon 38 adenocarcinoma) | activity against colon tumor 26 (colon tumor 26) | cell growth inhibitory potency relative to AMD (mouse melanoma (B16)) | % T/C (median survival time) (colon 38 adenocarcinoma; [9]) [%] | further results |
| --- | --- | --- | --- | --- | --- | --- | --- | --- | --- | --- | --- | --- | --- | --- | --- | --- | --- | --- | --- | --- | --- |
| Cc1c2oc3c(C)c(O)c(N)c(C(=O)N[C@@H]4C(=O)N[C@H](C(C)C)C(=O)N5CCC[C@H]5C(=O)N(C)CC(=O)N(C)[C@@H](C(C)C)C(=O)O[C@@H]4C)c3nc-2c(C(=O)N[C@@H]2C(=O)N[C@H](C(C)C)C(=O)N3CCC[C@H]3C(=O)N(C)CC(=O)N(C)[C@@H](C(C)C)C(=O)O[C@@H]2C)c(N)c1=O [SAD (2)] | 4/8 | two-to threefold | 7.5 ± 1.0 | 10.0 ± 1.0 | 47.0 ± 6.5 | 5.5 ± 1.5 | 30-50% | 278 | 5/9 | 95 | 278 | 6/9 | 97 | 211 | 2/9 | 99 | about 150% | significant activity | two to fourfold | – | percent unconverted drug ([2]; listed as SAD(2)): 30.0 ± 3.0%; % T/C, optimal ([3]; dose 40 μg/kg iv once a week for three weeks, TST 15, observed day 22): 18%; % T/C, optimal ([3]; dose 55 μg/kg iv once a week for three weeks, TST 15, observed day 22): 19%; % T/C, optimal ([3]; dose 70 μg/kg iv once a week for three weeks, TST 15, observed day 32): 5%; increase in %ILS over controls (colon tumor 26): 50-150%; increase of survival rate at 60 days (colon tumor 26): 10-40% |
| Cc1c2oc3c(C)c4oc(-c5ccccc5)nc4c(C(=O)N[C@@H]4C(=O)N[C@H](C(C)C)C(=O)N5CCC[C@H]5C(=O)N(C)CC(=O)N(C)[C@@H](C(C)C)C(=O)O[C@@H]4C)c3nc-2c(C(=O)N[C@@H]2C(=O)N[C@H](C(C)C)C(=O)N3CCC[C@H]3C(=O)N(C)CC(=O)N(C)[C@@H](C(C)C)C(=O)O[C@@H]2C)c(N)c1=O [RAD II (3b)] | 4/8 | two-to threefold | – | – | – | – | – | 137 | – | 70 | 170 | 3/9 | 83 | 103 | 2/9 | 88 | – | – | – | 103 | over 100 day survivors/number of mice (colon 38 adenocarcinoma; [9]): 1/9; % inhibn of tumor (colon 38 adenocarcinoma; [9]): 29% |
| Cc1c2oc3c(C)ccc(C(=O)N[C@@H]4C(=O)N[C@H](C(C)C)C(=O)N5CCC[C@H]5C(=O)N(C)CC(=O)N(C)[C@@H](C(C)C)C(=O)O[C@@H]4C)c3nc-2c(C(=O)N[C@@H]2C(=O)N[C@H](C(C)C)C(=O)N3CCC[C@H]3C(=O)N(C)CC(=O)N(C)[C@@H](C(C)C)C(=O)O[C@@H]2C)c(N)c1=O [AMD (1), Actinomycin D] (I: T[dV]P[Sar][NMeV] / II: T[dV]P[Sar][NMeV]; ester I:1-I:C, II:1-II:C; linker I:N-II:N via Actinocin(9to1)) | 1/8 | – | – | – | – | – | 100% | 134 | – | 67 | 103 | – | 89 | – | – | – | – | – | – | 107 | % T/C (median survival time) (colon 38 adenocarcinoma; [10]): 100%; % inhibn of tumor (colon 38 adenocarcinoma; [10]): 30%; % inhibn of tumor (colon 38 adenocarcinoma; [9]): 30%; % T/C (median survival time) (colon 38 adenocarcinoma; [11]): 170%; % inhibn of tumor (colon 38 adenocarcinoma; [11]): 83%; solubility in water (Solubility in water): 1000 µg/mL (≈ 797 µM); Bapp (calf thymus DNA [4]): 0.108; Kapp (equilibrium binding constant) (calf thymus DNA [4]): 2.3e+07 M⁻¹ |
| Cc1c2oc3c(C)c4oc(CC(=O)NCCCCN)nc4c(C(=O)N[C@@H]4C(=O)N[C@H](C(C)C)C(=O)N5CCC[C@H]5C(=O)N(C)CC(=O)N(C)[C@@H](C(C)C)C(=O)O[C@@H]4C)c3nc-2c(C(=O)N[C@@H]2C(=O)N[C@H](C(C)C)C(=O)N3CCC[C@H]3C(=O)N(C)CC(=O)N(C)[C@@H](C(C)C)C(=O)O[C@@H]2C)c(N)c1=O [RAD III (3c)] | 6/8 | two-to threefold | 5.0 ± 1.0 | 5.0 ± 2.0 | 40.0 ± 5.5 | 8.0 ± 2.0 | 20.0 ± 2.5% | 170 | 1/9 | 80 | 250 | 6/9 | 93 | 231 | 3/9 | 94 | about 150% | significant activity | two to fourfold | – | P388/S optimal dose ([1]; ip on days 1, 5, and 9): 1.0 mg/kg; percent metabolite isolated: SAD [2]: 20.0 ± 2.0%; % T/C, optimal ([3]; dose 75 μg/kg iv once a week for three weeks, TST 18, observed day 27): 13%; fold more soluble in water at 4° C. than at 20° C. (Solubility in water; 4° C. vs 20° C.): 16 fold; solubility in water (Solubility in water): 2100 µg/mL (≈ 1470 µM); change in the intrinsic viscosity with increasing [ligand]/[DNA base pair] (low molecular weight DNA): failed to demonstrate any measurable change in the intrinsic viscosity; Bapp (calf thymus DNA [5]): 0.040; Kapp (equilibrium binding constant) (calf thymus DNA [5]): 2.9e+06 M⁻¹ |
